Test [1] deals with wheat. The settings on record: in vivo.
The subject of test [2] is Fungi of the Saprolegnia spp. Nature of the test: Time to inactivation of Saprolegnia fungi (Example 15). The arrangement: key: —: No antimicrobial activity. The class given is cell-based. As to the method: Fungi in the amount of 10e8 cells were added to 1.0 ml of a solution of the test substance and after incubation were washed by PBS with centrifugation, resuspended in buffer, and plated on potato agar to assess survival.

Test [3] concerns wheat. Nature of the test: Wheat growth after seed treatment with reverse transcription, integration and protease inhibitors (Example 4). The class given is in vivo. Conditions: seeds treated 1 hour at 37° C.; cultivation 23° C.
Test [4] concerns wheat. Nature of the test: Wheat growth after seed treatment with complexes of inhibitors and nucleases (Example 5). Conditions: seeds treated 1 hour at 37° C.; cultivation 23° C. The class given is in vivo. As to the method:
Plant: wheat Treatment: The seeds were treated with various products for 1 hour, at 37° C. […] Cultivation temperature 23° C.

Test [5] deals with Wheat seeds (Triticum aestivum L.). Nature of the test: Wheat seed germination on potato dextrose agar after soaking in products (Example 1). The class given is in vivo. Conditions: seeds soaked 1 hour; nucleases 100 μg/ml at 37° C., M4 group products 0.5%. The text has this: Wheat seeds (Triticum aestivum L., healthy, not infected) were washed with water with soap, then without soap. […] Then the seeds (8 pieces) were laid out on potato dextrose agar (https://himedialabs.com/TD/M096.pdf). Treatment with test products.

Test [6] has the same test system. As to the kind of experiment: Wheat growth under stress conditions (18° C.) after seed soaking (Example 2). The class given is in vivo. The settings on record: seeds soaked 1 hour at 37° C., 100 μg/ml, cultivation 18° C.; for Root length (cm) / Shoot length (cm): after 5 days. As to the method:
The cultivation temperature was 18° C., instead of the required 23° C. The assessment of the state of the plants was carried out after 5 days (table 2).

Test [7] deals with wheat. As to the kind of experiment: Wheat growth after one-time watering with products (Example 7). The class given is in vivo. Conditions: one-time watering 1000 μg/ml, 200 ml for 20 grains; day 5. The arrangement: Shoot length / Root length: unit not given here.
Test [8] relates to wheat. Nature of the test: Regulation of wheat development after seed treatment (Example 3). The class given is in vivo. The settings on record: seeds treated 1 hour at 37° C.; cultivation 23° C. As to the method: Plant: wheat. Treatment: The wheat seeds were treated with various nucleases or products of the M4 group for 1 hour, at 37° C. […] Cultivation temperature 23° C.
In test [9] the test system is Red Turkish Carnation Seeds. As to the kind of experiment: Full cycle of plant growth after seed treatment with nucleases (Example 12). The class given is in vivo. The settings on record: seeds incubated with 100 μg/ml at 37° C. for 60 minutes.
Test [10] relates to patients with seborrheic dermatitis. Nature of the test: Treatment of seborrheic dermatitis (Example 23). Conditions: excipient alone, regimen not given; assessed within 14 days. The class given is in vivo, human. As to the method: The efficacy of the drugs was assessed within 14 days, using objective and subjective measures (the prevalence of the disease, the degree of inflammation and infiltration of skin elements, the severity of itching, peeling and crusting). Dermatoscopy was done using the Heine, mini 3000 LED.

Test [11] has as its system Fish (Trout) fish eggs contaminated with various pathogens.

This note sets out measurements from patent US20240180855A1, “BIOACTIVE PRODUCTS” (priority 2021, published 2024).

Several values for one entry are separate records, joined by “and”; a condition that tells them apart may be missing. Identical values can stand only once. Like-named read-outs stand apart in the source and are kept apart here. A value given as a limit tells only on which side of the number the result lay.

Turning to `O=P([O-])([O-])O.[Na+].[Na+]` [Na2HPO4 (0.01%), Na2HPO4], the “Root length (cm)” value with wheat [1] is 7.7 cm and 5.9 cm. Moreover, the “Seedling length (cm)” value with wheat [1] is 8.4 cm and 6.1 cm. The “Time (minutes) to reach 100% inactivation” value in [2] (0.005%), in test [2] (0.01%), in test [2] (0.05%), in [2] (0.1%) and in [2] (0.5%) was “—” in each case.
Turning to `Nc1ccn([C@@H]2CS[C@H](CO)O2)c(=O)n1` [Lamivudine], in the test on wheat [3], the “Chlorophyll total” value worked out at 54.3 mg/g, the “Emergence (%)” value worked out at 55%, the “Root lenght (median)” value worked out at 9 and the “Shoot length (median)” value is on record as 13.
As to `Nc1nc(NC2CC2)c2ncn([C@H]3C=C[C@@H](CO)C3)c2n1` [Abacavir], in the test on wheat [3], the “Chlorophyll total” value is given as 51.8 mg/g, the “Emergence (%)” value is on record as 50%, the “Root lenght (median)” value is recorded as 11 and the “Shoot length (median)” value worked out at 13.
In the case of Trypsin, in the test with wheat [4], the “Chlorophyll total” value was found to be 30.3 mg/g, the “Emergence (%)” value is 49%, the Root lenght amounted to 5.8 and the Shoot length was found to be 2.5.
Turning to `[H]/N=C(\N/C(=N/[H])NCCCCCCNC(=N)NC(=N)Nc1ccc(Cl)cc1)Nc1ccc(Cl)cc1` [Chlorhexidine], in test [5], the “Germination (%) at day 5 Day 3” value is reported as 54% and the “Median shoot length (mm) Day 3” value was determined as 14.6 mm. In addition, in test [6], the “Emergence at day 5” value is 53%, the “Root length (cm)” value is listed as 1.9 cm and the “Shoot length (cm)” value was found to be 6.3 cm. For the same compound, in the test with wheat [7], the “Emergence (%)” value is 50%, the Root length was 3.6 and the Shoot length was 6.9.
Regarding DNAse, in [5], the “Germination (%) at day 5 Day 3” value came to 75% and the “Median shoot length (mm) Day 3” value worked out at 24.6 mm. Moreover, in test [6], the “Emergence at day 5” value is given as 64%, the “Root length (cm)” value turned out to be 2.1 cm and the “Shoot length (cm)” value stood at 6.9 cm. In addition, in the test with wheat [8], the Chlorophyll total is 49.1, the “Emergence (%)” value is given as 67%, the “Leaf length (cm)” value is on record as 2.8 cm and the “Leaf width (cm)” value is recorded as 1.4 cm. Besides, in the test on wheat [8], the Number of leaves is reported as 2 + 1, the “Root length (cm)” value is 15.2 cm, the “Shoot length (cm)” value came out at 5.8 cm and the “Weight” value worked out at 0.6 g. In the test on wheat [4], the “Chlorophyll total” value is reported as 24.7 mg/g, the “Emergence (%)” value was found to be 73%, the Root lenght amounted to 3.6 and the Shoot length is 5.2. In [9], the Emergence (%) turned out to be 95%, the “Height on day 99” value was 7+/−1, the “Root branching at 99 days (words in the root length cell)” value is reported as “branched” and the “Root length at 99 days” value is 7+/−0.5. Moreover, in [9], the “The appearance of the first leaves” value was 5th day, the “The beginning of flowering” value turned out to be 183 days, the “The emergence of the buds” value was 174 days and the “Weight of seeds on day 258/12 plants” value turned out to be 0.24 g.
For `Cc1nnc(C(=O)NC(C)(C)c2nc(C(=O)NCc3ccc(F)cc3)c(O)c(=O)n2C)o1` [Raltegravir], in test [6], the “Emergence at day 5” value was determined as 71%, the “Root length (cm)” value is 2.6 cm and the “Shoot length (cm)” value turned out to be 9.8 cm. Besides, in the test on wheat [3], the “Chlorophyll total” value is 56.9 mg/g, the “Emergence (%)” value came out at 60%, the “Root lenght (median)” value is reported as 8 and the “Shoot length (median)” value is 12. In the test on wheat [4], the “Chlorophyll total” value stood at 25.9 mg/g, the “Emergence (%)” value was 42%, the Root lenght was 1.9 and the Shoot length worked out at 5.7.
In the case of `O=S(=O)([O-])[O-].[Zn+2]` [ZnSO4 0.01%, ZnSO4], the “Root length (cm)” value with wheat [1] was 5.7 cm and 7.1 cm. Further, in the test on wheat [1], the “Seedling length (cm)” value was 6.1 cm and 8.0 cm. For the same compound, the “Time (minutes) to reach 100% inactivation” value in test [2] (0.005%) is recorded as “—”; in [2] (0.01%), “—”; in test [2] (0.05%), “—”; in test [2] (0.1%) it was “—”; in test [2] (0.5%), “—*”. The “Day at which prevalence of the symptoms was reduced by 80%” value in test [10] was more than 14 days.
On to `COc1cc2c(cc1Cc1cccc(Cl)c1F)c(=O)c(C(=O)O)cn2[C@H](CO)C(C)C` [Elvitegravir], for which, in test [6], the “Emergence at day 5” value is listed as 65%, the “Root length (cm)” value came out at 2.6 cm and the “Shoot length (cm)” value is 9.9 cm.
In the case of `Cc1cc(C#N)cc(C)c1Oc1nc(Nc2ccc(C#N)cc2)nc(N)c1Br` [Etravirine], in the test on wheat [3], the “Chlorophyll total” value is 58.7 mg/g, the “Emergence (%)” value is 55%, the “Root lenght (median)” value is on record as 9 and the “Shoot length (median)” value stood at 13. Further, in the test on wheat [4], the “Chlorophyll total” value is recorded as 25.0 mg/g, the “Emergence (%)” value is 75%, the Root lenght was determined as 5.5 and the Shoot length turned out to be 7.4.
Take `C[C@H](Cn1cnc2c(N)ncnc21)OCP(=O)(O)O` [Tenofovir]: in the test on wheat [3], the “Chlorophyll total” value amounted to 57.7 mg/g, the “Emergence (%)” value turned out to be 45%, the “Root lenght (median)” value turned out to be 9 and the “Shoot length (median)” value is reported as 14.
Taken in the same sequence, the figures for `Cc1ccnc2c1NC(=O)c1cccnc1N2C1CC1` [Nevirapine] were 52.9 mg/g, 25%, 0 and 0.
Take `CN(C)c1ccc2nc3ccc(=[N+](C)C)cc-3sc2c1` [Methylene blue]: the Growth after plating entry in [11] is “Lawn”.
Turning to `OC[C@@H](O)[C@@H](O)[C@H](O)[C@H](O)CO` [Mannit (0.01%), Mannitol], the “Time (minutes) to reach 100% inactivation” value in test [2] (0.005%), in test [2] (0.01%), in test [2] (0.05%), in [2] (0.1%) and in [2] (0.5%) was “—” each time.
`CN(C)c1ccc(C(=C2C=CC(=[N+](C)C)C=C2)c2ccccc2)cc1` [Malachite green]: in [11], the Growth after plating entry is “Lawn”.
